Test results published in patent US20090220996A1, “In vitro Assay Methods for Classifying Embryotoxicity of Compounds” (RELIANCE LIFE SCIENCES PVT LTD., priority 2007, published 2009).
In brackets after ≈: the same amount, converted by molar mass. Like-named read-outs stand apart in the source and are kept apart here.

Columns and labels:
mouse ES cells = conditions: Table 4; from the EST (Genschow, et al., 2000); cited from earlier work
[1] = tested on: 3T3 (mouse fibroblast cell line); conditions: Table 4; from the EST (Genschow, et al., 2000); cited from earlier work
[2] = tested on: human embryonic stem cells (hES); experiment: Cytotoxicity in undifferentiated human embryonic stem cells, day 15 (FACS with PI / CyQUANT); assay type: cell-based; conditions: Homo sapiens, Embryonic stem cell
Experimental: In general, the presently disclosed embryotoxicity testing protocols comprise the following sequence of steps. Studies using embryoid bodies generally comprise: a) preparation of various concentrations of test solutions in culture medium or a desired solvent; b) preparation of a cell suspension by enzymatic digestion of human embryonic stem cell colonies; c) culturing the cell suspension for formation of embryoid bodies in the presence and absence of one or more test solutions, and incubation for several days (e.g., three days) in hanging drops; d) cultivation of the embryoid bodies in bacteriological petri dishes for several days (e.g., two days) under controlled conditions; e) transfer of the embryoid bodies into 96 well plates and incubation for several days (e.g., 10 days) in the presence of one or more test solutions; and f) detection of the viability of the embryoid bodies after 15 days by MTT assay, or fluorescent or luminescent method, and isolation of RNA for studying gene expression. Studies using human foreskin fibroblasts (HFF) generally comprise: a) preparation of various concentrations of test solutions in culture medium or a desired solvent; b) plating of HFF cells in 96 well plates in the presence or absence of one or more test solutions for 15 days, changing the media and test solutions every 2 days; and c) detection of the viability of HFF after 15 days by MTT assay, or fluorescent or luminescent method. Studies using human embryonic stem cells generally comprise: a) preparation of various concentrations of test solutions in culture medium or a desired solvent; b) preparation of hES colonies by manual passage in the presence and absence of one or more test solutions, and incubation for 15 days on matrigel coated plates changing the media and test solutions every 2 days; c) disruption of the colonies after 15 days with enzymes to form single cells; d) labeling of single cells with a fluorescently-labeled dye, such as propidium iodide (“PI”); and e) detection of the percentage viability with FACS as a measure of cytotoxicity. […]
After 2 hours incubation, 150 μl of assay medium containing the appropriate concentration of test chemical (150 μl volume contains 1.333× the final chemical concentration) was added. Appropriate blanks without the chemicals were used along with the test samples The cell cultures were incubated at 5% CO2 and 37° C. for 3 days. On day 3, test solution was removed with the care, so that the cell layer on the bottom of the wells was not disturbed. Next, 200 μl of freshly prepared test solution (final concentration/well as on day 0) was added, and the cell cultures were incubated at 5% CO2 and 37° C. for 3 days. This process was repeated on days 6, 9, and 12. Determination of cell growth inhibition was performed at day 15 of the assay using MTT reagent. Cytotoxicity for hES cells was calculated using flow cytometry. Briefly, cells were placed on matrigel coated plates along with different test compound concentrations. Media was replaced every 3 days along with the different test compound concentrations. At day 15, hES cells were collected by trypsinization, and after washing with PBS, the cells were incubated with PI for 10 minutes in the dark. Percent viability for various test compound concentrations was calculated using flow cytometry.
Cytotoxicity analysis of three cell types (hES, hEBs and HFF) was evaluated using the CyQUANT assay following compound treatment. All data were the mean of three independent experiments for each cell type. Data is represented as the mean±SE.

[3] = Table 5; cited from earlier work
[4] = tested on: human embryoid bodies (hEB); experiment: Cytotoxicity in human embryoid bodies, day 15 (MTT / CyQUANT); conditions: for IC50: Homo sapiens
Experimental: In general, the presently disclosed embryotoxicity testing protocols comprise the following sequence of steps. Studies using embryoid bodies generally comprise: a) preparation of various concentrations of test solutions in culture medium or a desired solvent; b) preparation of a cell suspension by enzymatic digestion of human embryonic stem cell colonies; c) culturing the cell suspension for formation of embryoid bodies in the presence and absence of one or more test solutions, and incubation for several days (e.g., three days) in hanging drops; d) cultivation of the embryoid bodies in bacteriological petri dishes for several days (e.g., two days) under controlled conditions; e) transfer of the embryoid bodies into 96 well plates and incubation for several days (e.g., 10 days) in the presence of one or more test solutions; and f) detection of the viability of the embryoid bodies after 15 days by MTT assay, or fluorescent or luminescent method, and isolation of RNA for studying gene expression. Studies using human foreskin fibroblasts (HFF) generally comprise: a) preparation of various concentrations of test solutions in culture medium or a desired solvent; b) plating of HFF cells in 96 well plates in the presence or absence of one or more test solutions for 15 days, changing the media and test solutions every 2 days; and c) detection of the viability of HFF after 15 days by MTT assay, or fluorescent or luminescent method. Studies using human embryonic stem cells generally comprise: a) preparation of various concentrations of test solutions in culture medium or a desired solvent; b) preparation of hES colonies by manual passage in the presence and absence of one or more test solutions, and incubation for 15 days on matrigel coated plates changing the media and test solutions every 2 days; c) disruption of the colonies after 15 days with enzymes to form single cells; d) labeling of single cells with a fluorescently-labeled dye, such as propidium iodide (“PI”); and e) detection of the percentage viability with FACS as a measure of cytotoxicity.
The culturing of the cell suspension is done by dispensing about ¼ of the cell suspension along with test chemicals on the inner side of a 100 mm bacteriological petri dish. Around 50-80 drops are dispensed for each concentration, the untreated control, and the solvent control. The lid is turned carefully into its regular position and is put on top of a petri dish containing 5 ml of phosphate buffered saline (“PBS”). The “hanging drops” are incubated for three days in a humidified atmosphere with 5% CO2 at 37° C.
On day 3, 5 ml of freshly prepared test solution is added to the lid of the “hanging drops” petri dish. The embryoid bodies are carefully transferred from the lid of the “hanging drops” petri dish to a 60 mm bacteriological petri dish. The suspension is cultivated for two days in a humidified atmosphere with 5% CO2 at 37° C.
On the 5th day, the EBs are transferred into 96 well plates by placing 10 EBs in each well. About 150 μl of freshly prepared test solution is added to each well, and three wells are used for each concentration. The 96 well plates are incubated for […] in a humidified atmosphere with 5% CO2 at 37° C. The remaining EBs are plated on a 24 well plate coated with 0.2% gelatin and allowed to differentiate. Media was replaced every second day until day 15.
On the 15th day, an MTT assay is performed. MTT solution (5 mg/ml) is prepared in culture medium containing test chemical. The MTT solution is added to all wells and incubated at 37° C. in a humidified atmosphere of 5% CO2 for 4 hours, after which the MTT desorb solution (acidified isopropanol) is added to each well. The plate is shaken on a micrometer plate for 15 minutes to dissolve the formazan. The absorbance is measured at 550-570 nm in a microtiter plate reader using 630 nm as a reference wavelength.

[5] = tested on: human embryoid bodies (hEBs); experiment: Morphological evaluation of embryoid bodies (photomicrographs); assay type: cell-based; conditions: day 7 hEBs; FIG. 4A-4D
Experimental: Hanging drops were made in hES media with LIF and bFGF for calculating IC50-hES cells, and in hES media without LIF and bFGF (hEB media) for the formation of EBs. On day 3 the hES colonies were collected along with the respective test compound concentration, whereas the hEBs were collected and transferred to 60 mm bacteriological petri plates for another 2 days. Morphology of the EBs was monitored under the microscope for the formation of EBs. On day 5 the hEBs were plated in a 96 well plate for MTT, as well as on a 6 well plate for RNA extraction. The media along with the appropriate test compound concentration was replaced in the 96 well and 6 well plates on days 7, 9, 11, and 13. On day 15, MTT was performed on the hES plate and the differentiated EBs. RNA was extracted from all the concentrations of 5-fluorouracil, and 1 μg of RNA was converted to cDNA to perform RT-PCR, real time PCR, or TLDA.

For `O=C1NS(=O)(=O)c2ccccc21` [Saccharin, saccharin], the “Mouse EST IC50 - mES” value (mouse ES cells) is listed as 3498 µg/mL, the “Mouse EST IC50 - 3T3” value [1] is listed as 3000 µg/mL and the IC50 ([2]; 360 h, Table 3, mean of 3 experiments, day 15, read-out: IC50-hES) is listed as 1920 ± 22.5 µg/mL (≈ 10.5 mM). The IC50 ([2]; Table 4, CyQuant cell viability assay, read-out: Human EST IC50 - hES) was 1920 ± 22.5 µg/mL (≈ 10.5 mM), the General toxicity [3] was “Obesity” and the IC50 ([4]; 360 h, read-out: IC50-hEB) was 1550 ± 34.5 µg/mL (≈ 8.44 mM). The IC50 ([4]; read-out: IC50-hEBs) was 1550 µg/mL (≈ 8.44 mM), the cell survival ([4]; hEBs, 1000 μg/ml, CyQUANT, FIG. 4A/4B) was “about 60%” and the “concentration required to elicit a similar morphological response (loss of compactness, decreased EB size)” value [5] was 5000 μg/ml.
